Earlier results in patent US20050008633A1, “Chemical and physical modulators of bioavailability of inhaled compositions” (Advanced Inhalation Research Inc., priority 2003, published 2005).

How the values were obtained:
[1] = system: rat alveolar epithelial cell monolayers; settings: rat pneumocyte monolayers
[2] = intratracheal instillation in animals, absorption over many hours

| Substance | Jmax (i.e., maximum flux) ([1]; net absorption of intact F-Alb) [fmol.cm^−2.s^−1] | Kt (i.e., K(1)) of net absorption of intact F-Alb ([1]; simple saturable process) [µM] | bioavailability [2] |
| --- | --- | --- | --- |
| F-Alb: fluorescein isothiocyanate (FITC)-labeled bovine serum albumin | ~0.15 | ~1.6 |  |
| immunoglobulin G |  |  | lower than 5% |
